Counter-ions that a name gives are not always drawn. Like-named read-outs stand apart in the source and are kept apart here. A value given as a limit tells only on which side of the number the result lay.

In one experiment the test system is A549 (lung carcinoma). The experiment is described as follows: In vitro antiproliferation assay, A549 cells (TABLE 1 6 point assay; TABLE 2). Format: cell-based. The method, then:
(§1) Certain compounds were tested against other cell types for their ability to inhibit proliferation in standard antiproliferation assays.

Experiment [1] concerns H1299 (non-small cell lung carcinoma). The experiment is described as follows: In vitro antiproliferation assay, H1299 cells (TABLE 1 6 point assay; TABLE 2). The class given is cell-based. The method, then: as §1
Where [2] appears, read: 6 point assay, A549 cells, read-out: IC50, A549 cells.
[3] abbreviates: 6 point assay, H1299 cells, read-out: IC50, H1299 cells.
The mark [4] stands for this setting: Homo sapiens, A549, A549 cells, 6 point assay, read-out: A549, 6pt (IC50, inhibition of proliferation).
Setting [5] is: Homo sapiens, NCI-H1299, H1299 cells, 6 point assay, read-out: H1299, 6pt (IC50, inhibition of proliferation).
[6] abbreviates: Homo sapiens, A549, 6 point assay, A549 cells, read-out: IC50, A549 cells.
[7] abbreviates: Homo sapiens, NCI-H1299, 6 point assay, H1299 cells, read-out: IC50, H1299 cells.

With `Cc1cc(Nc2ncc(F)c(NC3C4C=CC(C4)C3C(N)=O)n2)ccc1O` (racemic) [compound 277, Racemic-(2-exo,3-exo)-N4-(3-aminocarbonylbicyclo[2.2.1]hept-5-en-2-yl)-5-fluoro-N2-(4-hydroxy-3-methylphenyl)-2,4-pyrimidinediamine Bis- Hydrochloride Salt], the IC50 (with A549 (lung carcinoma) (setting [2]); in experiment [1] (setting [3])) was no more than 100 nM each time.
In the case of `Cc1ccc(Nc2ncc(F)c(NC3C4C=CC(C4)C3C(N)=O)n2)cc1OCC(=O)N1CCOCC1` (racemic) [compound 103, Racemic-(2-exo, 3-exo)-N4-(3-aminocarbonylbicyclo[2.2.1]hept-5-en-2-yl)-5-fluoro-N2-[4-methyl-3-(N-morpholinyl)carbonylmethyleneoxyphenyl]-2,4-pyrimidinediamine], the IC50 with A549 (lung carcinoma) (setting [4]) is 100 to 1000 nM; in experiment [1] (setting [5]), no more than 100 nM.
`CN(C)CCn1ccc2ccc(Nc3ncc(F)c(NC4C5CCC(C5)C4C(=O)NC4CC4)n3)cc21` (racemic) [compound 179, Racemic-(2-exo,3-exo)-N4-[3-cyclopropylaminocarbonylbicyclo[2.2.1]hept-2-yl)-N2-[1-(2-dimethylaminoethyl)indol-6-yl]-5-fluoro-2,4-pyrimidinediamine]: the IC50 (in the experiment on A549 (lung carcinoma) (setting [4]); in experiment [1] (setting [5])) was 100 to 1000 nM each time.
Consider `Cc1cc(Nc2ncc(F)c(NC3CC=CC3)n2)ccc1N1CCN(C)CC1` [compound 237, N4-(Cyclopent-3-ene-1-yl)-5-fluoro-N2-[3-methyl-4-(4-methylpiperazin-1-yl)phenyl]-2,4-pyrimidinediamine], for which the IC50 in the experiment on A549 (lung carcinoma) (setting [6]) is 100 to 1000 nM; in experiment [1] (setting [7]), 1000 to 10000 nM.
As to `Cc1cc(Nc2ncc(F)c(N[C@H]3CCC[C@H]3C(N)=O)n2)ccc1N1CCCC1` (racemic) [Compound 287, Racemic-cis-N4-(2-aminocarbonylcyclopent-1-yl)-5-fluoro-N2-[3-methyl-4-(pyrrolidino)phenyl]-2,4-pyrimidinediamine], the IC50 (in the experiment with A549 (lung carcinoma) (setting [6]); in experiment [1] (setting [7])) was 1000 to 10000 nM throughout.
For the compound `CN1CCN(c2ccc(Nc3ncc(F)c(NC4CCCC4C(N)=O)n3)cc2C(F)(F)F)CC1` (stereo not drawn) [compound 204, (cis)-N4-(2-Carboxamidocyclopent-1-yl)-5-fluoro-N2-[4-(4-methylpiperazino)-3-trifluoromethylphenyl]-1,4-pyrimidinediamine], the values for the IC50 (with A549 (lung carcinoma) (setting [6]); in experiment [1] (setting [7])) were 100 to 1000 nM and 1000 to 10000 nM, respectively.
`CN1CCc2cc(Nc3ncc(F)c(NC4C5C=CC(C5)C4C(N)=O)n3)ccc21` (racemic) [compound 174, Racemic-(2-exo,3-exo)-N4-[3-aminocarbonylbicyclo[2.2.1]hept-5-en-2-yl)-5-fluoro-N2-(1-methy-2,3-dihydrolindol-5-yl)-2,4-pyrimidinediamine]: the IC50 (in the experiment with A549 (lung carcinoma) (setting [4]); in experiment [1] (setting [5])) was 100 to 1000 nM throughout.
For the compound `CN1CCN(c2ccc(Nc3ncc(F)c(NC4CCCC4C(N)=O)n3)cc2C(F)(F)F)CC1` (stereo not drawn) [compound 207, (cis)-N4-(2-Carboxamidocyclopent-1-yl)-5-fluoro-N2-[4-(4-methylpiperazino)-3-trifluoromethylphenyl]-2,4-pyrimidinediamine Bis Hydrogen Chloride Salt], the results for the IC50 (in the experiment with A549 (lung carcinoma) (setting [2]); in experiment [1] (setting [3])) were 100 to 1000 nM and 1000 to 10000 nM, respectively.
On to `CN(C)CCN1CCc2cc(Nc3ncc(F)c(N[C@@H]4[C@H](C(N)=O)[C@H]5C=C[C@@H]4C5)n3)ccc21` (racemic) [compound 160, Racemic-(2-exo,3-exo)-N4-[3-aminocarbonylbicyclo[2.2.1]hept-5-en-2-yl)-N2-[1-(2-dimethylaminoethyl)-2,3-dihydroindol-5-yl]-5-fluoro-2,4-pyrimidinediamine], for which the figures for the IC50 (in the experiment with A549 (lung carcinoma) (setting [4]); in experiment [1] (setting [5])) were 100 to 1000 nM and no more than 100 nM, respectively.
Regarding `COC(=O)[C@H]1CCC[C@@H]1Nc1nc(Nc2ccc(N3CCN(C)CC3)c(C)c2)ncc1F` [compound 208, (1S,2S)-5-fluoro-N4-(2-methoxycarbonylcyclopent-1-yl)-N2-[3-methyl-4-(4-methylpiperazino)phenyl]-2,4-pyrimidinediamine], the IC50 (in the experiment with A549 (lung carcinoma) (setting [6]); in experiment [1] (setting [7])) was 1000 to 10000 nM throughout.
As to `Cc1cc(Nc2ncc(F)c(N[C@@H]3CCC[C@H]3C(N)=O)n2)ccc1N1CCN(C)CC1` [15c, (1R,2R)—N4-(2-Aminocarbonylcyclopent-1-yl)-5-fluoro-N2-[4-(4-methylpiperazin-1-yl)-3-methylphenyl]-2,4-pyrimidinediamine], the IC50 (with A549 (lung carcinoma) (setting [6]); in experiment [1] (setting [7])) was 1000 to 10000 nM each time.
For `CCNC(=O)C1C2C=CC(C2)C1Nc1nc(Nc2ccc3c(c2)OCCN3CCN(C)C)ncc1F` (racemic) [compound 184, Racemic-(2-exo,3-exo)-N4-[3-N-ethylminocarbonylbicyclo[2.2.1]hept-5-en-2-yl)-5-fluoro-N2-{1-[2-(dimethylamino)ethyl]-3,4-dihydro-4H-benz[1,4]oxazin-6-yl}-2,4-pyrimidinediamine], the IC50 (in the experiment with A549 (lung carcinoma) (setting [4]); in experiment [1] (setting [5])) was no more than 100 nM throughout.
For the compound `CN1CCN(CCn2ccc3cc(Nc4ncc(F)c(NC5C6C=CC(C6)C5C(N)=O)n4)ccc32)CC1` (racemic) [compound 134, Racemic-(2-exo,3-exo)-N4-(3-aminocarbonylbicyclo[2.2.1]hept-5-en-2-yl)-5-fluoro-N2-{1-[2-(4-methylpiperazin-1-yl)ethyl]indol-5-yl}-2,4-pyrimidinediamine], the IC50 (in the experiment with A549 (lung carcinoma) (setting [4]); in experiment [1] (setting [5])) was 100 to 1000 nM each time.
Regarding `Cc1cc(Nc2ncc(F)c(N[C@H]3[C@@H](C(=O)NC(C)c4ccccc4)[C@@H]4C=C[C@H]3C4)n2)ccc1N1CCN(C)CC1` (stereo partly drawn) [compound 109, (1R,2R,3S,4S)-N4-5-Fluoro-N4-(3-(R)-alpha-methylbenzylaminocarbonylbicyclo[2.2.1]hept-5-en-2-yl)-N2-[3-methyl-4-(4-methylpiperazin-1-yl)phenyl]-2,4-pyrimidinediamine], the IC50 (in the experiment with A549 (lung carcinoma) (setting [4]); in experiment [1] (setting [5])) was 100 to 1000 nM each time.
In the case of `Cc1cc(Nc2ncc(F)c(NC3C4C=CC(C4)C3C(N)=O)n2)ccc1N1CC2CC1CC2C` (racemic) [Compound 285, Racemic-(2-exo,3-exo)-N4-(3-aminocarbonylbicyclo[2.2.1]hept-5-en-2-yl)-5-fluoro-N2-[3-methyl-4-(5-methyl-(1S,4S)-2,5-diazabicyclo[2.2.1]heptan-2-yl)]phenyl-2,4-pyrimidinediamine], the IC50 (in the experiment on A549 (lung carcinoma) (setting [6]); in experiment [1] (setting [7])) was no more than 100 nM throughout.
With `CN1CCC(c2ccc(Nc3ncc(F)c(NC4C5C=CC(C5)C4C(N)=O)n3)cc2)CC1` (racemic) [compound 265, Racemic-(2-exo,3-exo)-N4-(3-aminocarbonylbicyclo[2.2.1]hept-5-en-2-yl)-5-fluoro-N2-[4-(1-methylpiperidin-4-yl)phenyl]-2,4-pyrimidinediamine], the IC50 (with A549 (lung carcinoma) (setting [6]); in experiment [1] (setting [7])) was no more than 100 nM each time.
For `Cc1cc(Nc2ncc(F)c(NC3C4C=CC(C4)C3C(N)=O)n2)cc(C)c1N1CCN(C)CC1` (racemic) [compound 271, Racemic-(2-exo,3-exo)-N4-(3-aminocarbonylbicyclo[2.2.1]hept-5-en-2-yl)-N2-[3,5-dimethyl-4-(4-methylpiperazin-1-yl)phenyl]-5-fluoro-2,4-pyrimidinediamine], the IC50 (with A549 (lung carcinoma) (setting [6]); in experiment [1] (setting [7])) was 1000 to 10000 nM each time.
As for `CN1CCN(C(=O)Cc2ccc(Nc3ncc(F)c(N[C@H]4CCC[C@H]4C(N)=O)n3)cc2)CC1` (racemic) [compound 279, Racemic-cis-N4-(2-aminocarbonylcyclopent-1-yl)-5-fluoro-N2-{4-[(4-methylpiperazin-1-yl)-ethan-1-one-2-yl]phenyl}-2,4-pyrimidinediamine], the IC50 (with A549 (lung carcinoma) (setting [6]); in experiment [1] (setting [7])) was 1000 to 10000 nM in each case.
Consider `NC(=O)C1CCCC1Nc1nc(Nc2cccc(N3CCOCC3)c2)ncc1F` (stereo not shown) [compound 200, N4-(2-Carboxamidocyclopentyl)-5-fluoro-N2-(3-morpholinophenyl)-2,4-pyrimidinediamine], for which the IC50 in the experiment with A549 (lung carcinoma) (setting [6]) fell in the range of 100 to 1000 nM; in experiment [1] (setting [7]) it was 1000 to 10000 nM.
Turning to `NC(=O)C1C2C=CC(C2)C1Nc1nc(Nc2ccc(C3CCNCC3)cc2)ncc1F` (racemic) [compound 264, Racemic-(2-exo,3-exo)-N4-(3-aminocarbonylbicyclo[2.2.1]hept-5-en-2-yl)-5-fluoro-N2-[4-(piperidin-4-yl)phenyl]-2,4-pyrimidinediamine], the IC50 in the experiment with A549 (lung carcinoma) (setting [6]) was no more than 100 nM; in experiment [1] (setting [7]), 100 to 1000 nM.
In the case of `Cc1cc(Nc2ncc(F)c(N[C@H]3C=CC[C@H]3C(N)=O)n2)ccc1N1CCN(C)CC1` (racemic) [Compound 286, Racemic-cis-N4-(2-aminocarbonylcyclopent-4-en-1-yl)-5-fluoro-N2-[3-methyl-4-(4-methylpiperazin-1-yl)phenyl]-2,4-pyrimidinediamine], the IC50 (in the experiment with A549 (lung carcinoma) (setting [6]); in experiment [1] (setting [7])) was 100 to 1000 nM throughout.
`COC(=O)[C@@H]1CC[C@H](Nc2nc(Nc3ccc(N4CCN(C)CC4)c(C)c3)ncc2F)C1` [compound 215, (1S,3R)-N4-(3-Methoxycarbonylcyclopent-1-yl)-5-fluoro-N2-[3-methyl-4-(4-methylpiperazin-1-yl)phenyl]-2,4-pyrimidinediamine]: the IC50 (with A549 (lung carcinoma) (setting [6]); in experiment [1] (setting [7])) was 1000 to 10000 nM each time.
For `CN1CCN(c2ccc(Nc3ncc(F)c(NC4C5C=CC(C5)C4C(N)=O)n3)cc2CO)CC1` (racemic) [compound 236, Racemic-(2-exo,3-exo)-N4-(3-aminocarbonylbicyclo[2.2.1]hept-5-en-2-yl)-5-fluoro-N2-[3-hydroxymethyl-4-(4-methylpiperazin-1-yl)phenyl]-2,4-pyrimidinediamine], the IC50 (in the experiment with A549 (lung carcinoma) (setting [6]); in experiment [1] (setting [7])) was no more than 100 nM throughout.

The record behind these values is patent US7868013B2, “Cycloalkyl substituted pyrimidinediamine compounds and their uses” (Rigel Pharmaceuticals, Inc., priority 2004, dated 2011).
